Data on 16 compounds can be found in patent US7713994B2 (Wyeth LLC, priority 2005, dated 2010).

Structures are written as SMILES. Read-outs that look alike come from different tables or passages of the source.

For assay [1], the system named is LoVo. The assay can be described thus: Cytotoxicity assay (SRB), LoVo. Particulars: Homo sapiens, LoVo, 72 h, read-out: In Vitro Cellular Activity IC50 LOVO. The assay is classed as cell-based. A digest of the protocol: (§1)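 Cells seeded overnight at 37 °C, 7% CO2 (BT474 12000, HCT-116 4000, LoVo and MCF-7 6000 cells/well) in RPMI 1640 with 5% FBS, then exposed to compound dilutions for 3 days (BT474 6 days). Survival versus untreated controls by TCA fixation and SRB staining, absorbance 540 nm.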

In assay [2] the test system is MCF-7. Nature of the assay: Cytotoxicity assay (SRB), MCF-7. The assay is classed as cell-based. The settings on record: Homo sapiens, MCF7, 72 h, read-out: In Vitro Cellular Activity IC50 MCF-7. A digest of the protocol:
as §1

For assay [3], the target named is T1, cyclin E/CDK2 enzyme (Homo sapiens, UniProt P24941).
T1 construct: made in house; host or cells: Sf9 insect cells, recombinant baculovirus
Nature of the assay: CDK2 ELISA kinase assay (phospho-Rb ser 795 detection). The assay is classed as biochemical. The settings on record: In Vitro Enzyme Assays, read-out: CDK2 IC50. A digest of the protocol: (§2)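 ELISA format: plate-bound GST-Rb, 200 μM ATP, Sf9 cyclin/CDK enzyme, 1 h at 30° C; then anti-pRb Ser795 primary overnight at 4° C, HRP secondary, TMB. IC50 after no-substrate background subtraction.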

In assay [4] the test system is BT474. The assay can be described thus: Cytotoxicity assay (SRB), BT474. Format: cell-based. Particulars: Homo sapiens, BT-474, 144 h, read-out: In Vitro Cellular Activity IC50 BT474. A digest of the protocol: as §1
Assay [5] has as its system HCT-116. The assay can be described thus: Cytotoxicity assay (SRB), HCT-116. The assay is classed as cell-based. The settings on record: Homo sapiens, HCT-116, 72 h, read-out: In Vitro Cellular Activity IC50 HCT116. Put shortly:
as §1

Assay [6] deals with T2, cyclin D1/cdk 4 enzyme (Homo sapiens, UniProt P11802).
T2 construct: made in house; host or cells: Sf9 insect cells, recombinant baculovirus
T2 sequence (P11802 whole entry, species assumed): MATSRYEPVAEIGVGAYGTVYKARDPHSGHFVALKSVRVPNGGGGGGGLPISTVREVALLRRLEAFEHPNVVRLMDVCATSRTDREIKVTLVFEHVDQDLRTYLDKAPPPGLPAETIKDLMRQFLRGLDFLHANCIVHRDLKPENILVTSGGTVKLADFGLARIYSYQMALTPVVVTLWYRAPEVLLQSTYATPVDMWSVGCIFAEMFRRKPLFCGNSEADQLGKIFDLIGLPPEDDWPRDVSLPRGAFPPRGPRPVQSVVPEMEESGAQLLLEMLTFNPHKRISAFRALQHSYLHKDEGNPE
T2 sequence (P24385 whole entry partner, species assumed): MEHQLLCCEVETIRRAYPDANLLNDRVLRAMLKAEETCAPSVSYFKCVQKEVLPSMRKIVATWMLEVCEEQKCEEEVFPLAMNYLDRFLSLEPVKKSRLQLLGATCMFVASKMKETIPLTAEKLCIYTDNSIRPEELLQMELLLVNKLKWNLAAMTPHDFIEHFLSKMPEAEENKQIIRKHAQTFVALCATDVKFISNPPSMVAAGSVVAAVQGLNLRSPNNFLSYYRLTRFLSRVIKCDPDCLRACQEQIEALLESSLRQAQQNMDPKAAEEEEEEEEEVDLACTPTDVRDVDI
The assay can be described thus: CDK4 ELISA kinase assay (phospho-Rb ser 795 detection). The settings on record: 200 μM ATP. Format: biochemical. Put shortly:
as §2

For assay [7], the target named is T3, cyclin B/CDK1 enzyme (Homo sapiens, UniProt P06493).
T3 construct: purchased New England BioLabs; host or cells: Sf9 insect cells, recombinant baculovirus
T3 sequence (P06493 whole entry): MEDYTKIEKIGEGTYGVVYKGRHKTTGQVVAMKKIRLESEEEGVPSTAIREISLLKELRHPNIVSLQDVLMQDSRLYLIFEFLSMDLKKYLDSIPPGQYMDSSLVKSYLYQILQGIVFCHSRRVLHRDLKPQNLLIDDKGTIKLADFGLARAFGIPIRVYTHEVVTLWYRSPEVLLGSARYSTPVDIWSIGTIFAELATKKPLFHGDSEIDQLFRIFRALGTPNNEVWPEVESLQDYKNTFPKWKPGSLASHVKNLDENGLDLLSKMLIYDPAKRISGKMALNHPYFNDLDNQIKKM
T3 sequence (P14635 whole entry partner): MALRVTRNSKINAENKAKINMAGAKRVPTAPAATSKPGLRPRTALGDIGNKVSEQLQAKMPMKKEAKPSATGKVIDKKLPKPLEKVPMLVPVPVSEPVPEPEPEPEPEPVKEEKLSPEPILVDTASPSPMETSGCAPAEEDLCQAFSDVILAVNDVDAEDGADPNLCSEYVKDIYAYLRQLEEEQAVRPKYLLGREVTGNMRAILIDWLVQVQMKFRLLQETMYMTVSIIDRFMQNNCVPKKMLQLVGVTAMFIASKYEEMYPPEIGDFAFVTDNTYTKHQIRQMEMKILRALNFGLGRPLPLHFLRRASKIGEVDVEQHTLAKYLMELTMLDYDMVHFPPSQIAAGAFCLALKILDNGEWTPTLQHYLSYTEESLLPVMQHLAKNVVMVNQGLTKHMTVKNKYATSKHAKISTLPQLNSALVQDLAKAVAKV
Nature of the assay: CDK1 ELISA kinase assay (phospho-Rb ser 795 detection). Format: biochemical. A digest of the protocol:
as §2

Where [8] appears, read: In Vitro Enzyme Assays, read-out: CDK4 IC50.
Setting [9] is: In Vitro Enzyme Assays, read-out: CDK1 IC50.
The mark [10] stands for this setting: CDK4 IC50, In Vitro Enzyme Assays.
The mark [11] stands for this setting: CDK1 IC50, In Vitro Enzyme Assays.

For the compound `C=CC(=O)Nc1ccc(CN/C=C2\C(=O)NC(=O)c3ccc(Br)cc32)cc1O` [Example 301, N-[4-({[(Z)-(6-Bromo-1,3-dioxo-2,3-dihydroisoquinolin-4(1H)-ylidene)methyl]amino}methyl)-2-hydroxyphenyl]acrylamide], the IC50 in assay [1] (LoVo cells, SRB, three days) worked out at 0.17 µM; in assay [2] (MCF-7 cells, SRB, three days), 0.2 µM; in assay [3], 8.4 µM; in assay [4] (BT474 cells, SRB, 6 days) it was 0.14 µM; in assay [5] (HCT116 cells, SRB, three days) it was 0.17 µM; in assay [6] (setting [8]), 0.09 µM. For the same compound, the IC50 in assay [7] (setting [9]) was over 50 µM.
In the case of `CC(C)[Si](Oc1cc(CN/C=C2\C(=O)NC(=O)c3ccc(Br)cc32)ccc1N)(C(C)C)C(C)C` [Example 303, (4Z)-4-[({4-Amino-3-[(triisopropylsilyl)oxy]benzyl}amino)methylene]-6-bromoisoquinoline-1,3(2H,4H)-dione], the IC50 came to 4.6 µM in assay [1] (LoVo cells, SRB, three days); 10 µM in assay [2] (MCF-7 cells, SRB, three days); 3.7 µM in assay [3]; 3.1 µM in assay [4] (BT474 cells, SRB, 6 days); 5.3 µM in assay [5] (HCT116 cells, SRB, three days); 0.39 µM in assay [6] (setting [10]). In assay [7] (setting [11]), this compound registered a concentration for half-maximal inhibition (IC50) of 33.9 µM.
Consider `CN(C)CCCCCN/C=C1\C(=O)NC(=O)c2ccc(Br)cc21` [Example 304, (Z)-6-Bromo-4-((5-(dimethylamino)pentylamino)methylene)isoquinoline-1,3(2H,4H)-dione], for which the half-inhibitory concentration (IC50) in assay [1] (LoVo cells, SRB, three days) came out at 6.7 µM; in assay [2] (MCF-7 cells, SRB, three days) it was 7.1 µM; in assay [3] it was 36.3 µM; in assay [4] (BT474 cells, SRB, 6 days), 16 µM; in assay [5] (HCT116 cells, SRB, three days), 13 µM; in assay [6] (setting [8]) it was 1.5 µM. Moreover, the IC50 in assay [7] (setting [9]) is over 50 µM.
Consider `CN(C)CCCCN/C=C1\C(=O)NC(=O)c2ccc(Br)cc21` [Example 305, (Z)-6-Bromo-4-((4-(dimethylamino)butylamino)methylene)isoquinoline-1,3(2H,4H)-dione], for which the IC50 in assay [1] (LoVo cells, SRB, three days) was 14 µM; in assay [2] (MCF-7 cells, SRB, three days) it was 18 µM; in assay [3] it was 39.7 µM; in assay [4] (BT474 cells, SRB, 6 days), 23 µM; in assay [5] (HCT116 cells, SRB, three days), 21 µM; in assay [6] (setting [8]) it was 1.7 µM. In addition, the IC50 in assay [7] (setting [9]) was over 50 µM.
For the compound `CN(C)CCCN/C=C1\C(=O)NC(=O)c2ccc(Br)cc21` [Example 306, (Z)-6-Bromo-4-((3-(dimethylamino)propylamino)methylene)isoquinoline-1,3(2H,4H)-dione], the IC50 is 13 µM in assay [1] (LoVo cells, SRB, three days); 25 µM in assay [2] (MCF-7 cells, SRB, three days); over 50 µM in assay [3]; 37 µM in assay [4] (BT474 cells, SRB, 6 days); 26 µM in assay [5] (HCT116 cells, SRB, three days); 6.7 µM in assay [6] (setting [8]). Also, in assay [7] (setting [9]), the IC50 was over 50 µM.
As for `O=C1NC(=O)c2ccc(Br)cc2/C1=C/NCCN1CCNCC1` [Example 307, (Z)-6-Bromo-4-((2-(piperazin-1-yl)ethylamino)methylene)isoquinoline-1,3(2H,4H)-dione], the IC50 in assay [1] (LoVo cells, SRB, three days) amounted to 28 µM; in assay [2] (MCF-7 cells, SRB, three days) it was 25 µM; in assay [3] it was 38 µM; in assay [4] (BT474 cells, SRB, 6 days), 46 µM; in assay [5] (HCT116 cells, SRB, three days), 23 µM; in assay [6] (setting [8]) it was 9.8 µM. Moreover, the IC50 in assay [7] (setting [9]) was over 50 µM.
`CCN(CC)CCCCN/C=C1\C(=O)NC(=O)c2ccc(Br)cc21` [Example 308, (Z)-6-Bromo-4-((4-(diethylamino)butylamino)methylene)isoquinoline-1,3(2H,4H)-dione]: the IC50 in assay [1] (LoVo cells, SRB, three days) was 16 µM; in assay [2] (MCF-7 cells, SRB, three days) it was 23 µM; in assay [3] it was over 50 µM; in assay [4] (BT474 cells, SRB, 6 days), 23 µM; in assay [5] (HCT116 cells, SRB, three days), 21 µM; in assay [6] (setting [8]) it was 2.6 µM. Also, the IC50 in assay [7] (setting [9]) was over 50 µM.
For the compound `O=C1NC(=O)c2ccc(Br)cc2/C1=C/NCCCN1CCCC1` [Example 309, (Z)-6-Bromo-4-((3-(pyrrolidin-1-yl)propylamino)methylene)isoquinoline-1,3(2H,4H)-dione], the IC50 in assay [1] (LoVo cells, SRB, three days) is 15 µM; in assay [2] (MCF-7 cells, SRB, three days) it was 20 µM; in assay [3], over 50 µM; in assay [4] (BT474 cells, SRB, 6 days), 26 µM; in assay [5] (HCT116 cells, SRB, three days), 26 µM; in assay [6] (setting [8]), 14.7 µM. The IC50 in assay [7] (setting [9]) is over 50 µM.
For the compound `O=C1NC(=O)c2ccc(Br)cc2/C1=C/NCCCN1CCOCC1` [Example 310, (Z)-6-Bromo-4-((3-morpholinopropylamino)methylene)isoquinoline-1,3(2H,4H)-dione], the IC50 is 17 µM in assay [1] (LoVo cells, SRB, three days); 11 µM in assay [2] (MCF-7 cells, SRB, three days); over 50 µM in assay [3]; 27 µM in assay [4] (BT474 cells, SRB, 6 days); 21 µM in assay [5] (HCT116 cells, SRB, three days); 9.4 µM in assay [6] (setting [8]). Moreover, the IC50 in assay [7] (setting [9]) was over 50 µM.
Turning to `O=C1NC(=O)c2ccc(Br)cc2/C1=C/NCCCN1CCCC1=O` [Example 311, (Z)-6-Bromo-4-((3-(2-oxopyrrolidin-1-yl)propylamino)methylene)isoquinoline-1,3(2H,4H)-dione], the IC50 in assay [1] (LoVo cells, SRB, three days) is 19 µM; in assay [2] (MCF-7 cells, SRB, three days), 13 µM; in assay [3], over 50 µM; in assay [4] (BT474 cells, SRB, 6 days), 38 µM; in assay [5] (HCT116 cells, SRB, three days) it was 29 µM; in assay [6] (setting [8]), 8.6 µM. For the same compound, the IC50 in assay [7] (setting [9]) is over 50 µM.
As for `O=C1NC(=O)c2ccc(Br)cc2/C1=C/NCc1ccc(NC(=O)C(Cl)Cl)c(O)c1` [Example 320, N-[4-({[(Z)-(6-Bromo-1,3-dioxo-2,3-dihydroisoquinolin-4(1H)-ylidene)methyl]amino}methyl)-2-hydroxyphenyl]-2,2-dichloroacetamide], the half-maximal inhibitory concentration (IC50) in assay [1] (LoVo cells, SRB, three days) amounted to 4.5 µM; in assay [2] (MCF-7 cells, SRB, three days), 4.9 µM; in assay [3], 4 µM; in assay [4] (BT474 cells, SRB, 6 days), 2 µM; in assay [5] (HCT116 cells, SRB, three days), 2.1 µM; in assay [6] (setting [8]) it was 0.12 µM. In assay [7] (setting [9]), the IC50 was determined as 6.8 µM.
As for `CCC(=O)Nc1ccc(CN/C=C2\C(=O)NC(=O)c3ccc(Br)cc32)cc1` [Example 321], the IC50 in assay [1] (LoVo cells, SRB, three days) was 4.4 µM; in assay [2] (MCF-7 cells, SRB, three days), 10 µM; in assay [3], 3.6 µM; in assay [4] (BT474 cells, SRB, 6 days), 0.84 µM; in assay [5] (HCT116 cells, SRB, three days) it was 1.2 µM; in assay [6] (setting [8]), over 50 µM. In addition, the IC50 in assay [7] (setting [9]) was over 50 µM.
Take `C=CC(=O)Nc1ccc(CN/C=C2\C(=O)NC(=O)c3ccc(Br)cc32)cc1` [Example 322, N-[4-({[(Z)-(6-Bromo-1,3-dioxo-2,3-dihydroisoquinolin-4(1H)-ylidene)methyl]amino}methyl)phenyl]acrylamide]: the IC50 in assay [1] was 0.24 µM; in assay [2] it was 0.24 µM; in assay [3], 7.8 µM; in assay [4] it was 0.11 µM; in assay [5], 0.25 µM; in assay [6] (setting [8]), over 50 µM. For the same compound, the IC50 in assay [7] (setting [9]) is over 50 µM.
Take `CC(C)[Si](Oc1cc(CN/C=C2\C(=O)NC(=O)c3ccc(I)cc32)ccc1N)(C(C)C)C(C)C` [Example 323, (4Z)-4-[({4-Amino-3-[(triisopropylsilyl)oxy]benzyl}amino)methylene]-6-iodoisoquinoline-1,3(2H,4H)-dione]: the IC50 was over 50 µM in assay [1] (LoVo cells, SRB, three days); 10 µM in assay [2] (MCF-7 cells, SRB, three days); 42.5 µM in assay [3]; 18.3 µM in assay [4] (BT474 cells, SRB, 6 days); 22 µM in assay [5] (HCT116 cells, SRB, three days); 1.9 µM in assay [6] (setting [10]). In assay [7] (setting [11]), this compound registered an IC50 of over 50 µM.
As to `O=C1NC(=O)c2ccc(I)cc2/C1=C/NCc1ccc(NC(=O)c2ccccc2)c(O)c1` [Example 334, N-[2-Hydroxy-4-({[(Z)-(6-iodo-1,3-dioxo-2,3-dihydroisoquinolin-4(1H)-ylidene)methyl]amino}methyl)phenyl]benzamide], the IC50 in assay [1] (LoVo cells, SRB, three days) is 5.9 µM; in assay [2] (MCF-7 cells, SRB, three days), 7.9 µM; in assay [3], 7.8 µM; in assay [4] (BT474 cells, SRB, 6 days), 7.2 µM; in assay [5] (HCT116 cells, SRB, three days) it was 7.1 µM; in assay [6] (setting [8]) it was 0.07 µM. Moreover, in assay [7] (setting [9]), the IC50 is over 50 µM.
Take `CC(C)C(=O)Nc1ccc(CN/C=C2\C(=O)NC(=O)c3ccc(I)cc32)cc1O` [Example 335, N-[2-Hydroxy-4-({[(Z)-(6-iodo-1,3-dioxo-2,3-dihydroisoquinolin-4(1H)-ylidene)methyl]amino}methyl)phenyl]-2-methylpropanamide]: the IC50 came out at 4.5 µM in assay [1] (LoVo cells, SRB, three days); 5.9 µM in assay [2] (MCF-7 cells, SRB, three days); 1.4 µM in assay [3]; 5.1 µM in assay [4] (BT474 cells, SRB, 6 days); 5 µM in assay [5] (HCT116 cells, SRB, three days); 0.02 µM in assay [6] (setting [8]). The IC50 in assay [7] (setting [9]) is over 50 µM.
